Ki data for eight molecules are collected here from BindingDB's records for doi:10.3109/14756366.2012.732071 (Ondokuz Mayis University, 2013).

In one assay the target is Carbonic anhydrase 1 (Homo sapiens, UniProt P00915). Briefly: Esterase Assay. The settings on record: pH 7.4; 25 °C. How it is done:
(§1) The enzymatic reaction, in a total volume of 3.0 mL, contained 1.4 mL 0.05 M Tris-SO4 buffer (pH 7.4), 1 mL 3 mM NPA, 0.5 mL H2O and 0.1 mL enzyme solution. A reference measurement was obtained by preparing the same cuvette without enzyme solution. All compounds were tested in triplicate at each concentration used.

The target in the next assay is Carbonic anhydrase 2 (Homo sapiens, UniProt P00918). Briefly: Esterase Assay. To be noted: pH 7.4; 25 °C. The procedure:
as §1

Sequence of Carbonic anhydrase 1 (P00915 whole entry): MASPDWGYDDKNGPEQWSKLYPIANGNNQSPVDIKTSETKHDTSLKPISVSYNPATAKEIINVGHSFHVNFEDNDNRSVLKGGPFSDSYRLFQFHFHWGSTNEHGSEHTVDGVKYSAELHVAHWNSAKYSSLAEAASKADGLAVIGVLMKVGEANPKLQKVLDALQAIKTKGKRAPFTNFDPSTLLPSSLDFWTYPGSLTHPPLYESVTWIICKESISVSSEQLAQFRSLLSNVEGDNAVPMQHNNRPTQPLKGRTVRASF

For `Cc1cccc(N2C(=O)[C@H](C)S[C@H]2c2sccc2C)n1` [Thiazolidin-based CA inhibitor, 5a], the inhibition constant Ki on Carbonic anhydrase 1 stood at 27.5 µM; at Carbonic anhydrase 2, 2.29 µM.

Regarding `Cc1cccc(N2C(=O)CSC2c2cccs2)n1` (stereo unspecified) [Thiazolidin-based CA inhibitor, 1], the Ki came to 6.8 µM at Carbonic anhydrase 1 and 1.34 µM on Carbonic anhydrase 2.

Turning to `Cc1cccc(N2C(=O)CSC2c2ccc(C)s2)n1` (stereo unspecified) [Thiazolidin-based CA inhibitor, 3], the values for the Ki on Carbonic anhydrase 1 and at Carbonic anhydrase 2 were 5.38 µM and 1.36 µM, respectively.

In the case of `Cc1cccc(N2C(=O)[C@@H](C)S[C@H]2c2ccc(C)s2)n1` [(2S,5R)-5-methyl-3-(6-methylpyridin-2-yl)-2-(5-methylthiophen-2-yl)thiazolidin-4-one], the inhibition constant (Ki) is 4.43 µM at Carbonic anhydrase 1 and 0.81 µM on Carbonic anhydrase 2.

For the molecule `Cc1cccc(N2C(=O)[C@H](C)S[C@H]2c2ccc(C)s2)n1` [(2S,5S)-5-methyl-3-(6-methylpyridin-2-yl)-2-(5-methylthiophen-2-yl)thiazolidin-4-one], the Ki at Carbonic anhydrase 1 worked out at 5.58 µM; at Carbonic anhydrase 2, 0.93 µM.

As to `Cc1cccc(N2C(=O)[C@@H](C)S[C@H]2c2sccc2C)n1` [Thiazolidin-based CA inhibitor, 5b], the Ki at Carbonic anhydrase 1 was found to be 29.4 µM; at Carbonic anhydrase 2, 3.59 µM.

As to `Cc1cccc(N2C(=O)CSC2c2sccc2C)n1` (stereo unspecified) [Thiazolidin-based CA inhibitor, 2], the inhibition constant Ki stood at 47.5 µM on Carbonic anhydrase 1 and 2.48 µM at Carbonic anhydrase 2.

Turning to `Cc1cccc(N2C(=O)C(C)SC2c2cccs2)n1` (stereo unspecified) [Thiazolidin-based CA inhibitor, 4], the Ki on Carbonic anhydrase 1 worked out at 5.51 µM; at Carbonic anhydrase 2, 1.32 µM.
